We go through four molecules from article PMC12262620 (bioRxiv, 2025).

One series deals with LgBiT-eIF4E cells. The series can be described thus: CellTiter-Glo cell viability assay. To be noted: 6-hour treatment, at the concentrations tested. In kind it is cell-based, human. Background: ATP-based viability assays read luminescence as a measure of living cells.
Series [1] has as its target eIF4E binding to m^7GTP RNA substrate (Homo sapiens, UniProt P06730). The series can be described thus: cell-based. To be noted: 6-hour treatment.
For a further series, the target named is His10-eIF4E (human, UniProt P06730 1-217). The series can be described thus: FP competition.
His10-eIF4E, sequence (P06730 whole entry): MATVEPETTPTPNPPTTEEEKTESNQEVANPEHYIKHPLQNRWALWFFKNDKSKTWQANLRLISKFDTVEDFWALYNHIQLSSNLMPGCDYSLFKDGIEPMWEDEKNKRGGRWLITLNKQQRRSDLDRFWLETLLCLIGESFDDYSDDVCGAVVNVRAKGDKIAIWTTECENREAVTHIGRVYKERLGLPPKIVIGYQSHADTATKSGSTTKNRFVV
[2] abbreviates: IC50 in CRISPR RiPCA, read at 24 hours.
Where [3] appears, read: IC50 values as 95% confidence intervals, CRISPR RiPCA.

eIF4E binding to m^7GTP RNA substrate, sequence (P06730 whole entry): as above

In the case of `O=C(O)C(Cc1ccccc1[N+](=O)[O-])=NNc1nc(-c2ccc(Cl)c(Cl)c2)cs1` (mixture of isomers) [4EGI-1], the “cell viability / cell death” value in the series on LgBiT-eIF4E cells is on record as “Absence of viability defects”.

Regarding `Cc1cc(-c2cc(Cl)ccc2OCCn2c(C)nc3cc(C(F)(F)F)cc(C#N)c3c2=O)c2scc(C(=O)O)c2n1` [compound 2], the IC50 (in general, the midpoint of a concentration-inhibition curve) in series [1] (setting [2]) was 124 nM; in series [1] (setting [3]) it was 91 to 171 nM.

As to `CO[C@H]1C[C@@H]2CC[C@@H](C)[C@@](O)(O2)C(=O)C(=O)N2CCCC[C@H]2C(=O)O[C@H]([C@H](C)C[C@@H]2CC[C@@H](O)[C@H](OC)C2)CC(=O)[C@H](C)/C=C(\C)[C@@H](O)[C@@H](OC)C(=O)[C@H](C)C[C@H](C)/C=C/C=C/C=C/1C` [rapamycin], the IC50 in series [1] (setting [2]) is 4700 nM; in series [1] (setting [3]) it was 1900 to 11000 nM. The “cell viability / cell death” value in the series on LgBiT-eIF4E cells was “Absence of viability defects”.

Consider GCUUCAAGAU (ssRNA, no cap; 3' C6 amine) [G RNA (uncapped)], for which, in the series with His10-eIF4E, the binding result is recorded as “no binding”.
